Assay results reported in patent publication US11679107B2 (Eisai R&D Management Co., Ltd., priority 2018, dated 2023).
Like-named read-outs stand apart in the source and are kept apart here.

Legend:
[1] = target: T1, SF3b complexes (Homo sapiens, UniProt O75533+Q7RTV0); test: Scintillation proximity assay (SPA) with [3H]-labelled pladienolide probe; type: binding; details: SF3B1 (WT); geometric mean; read-out: SPA-ATS GMean IC50 (nM) SF3B1 (WT)
T1 construct: endogenous in cells; host or cells: Nuclear extracts; A HeLa S3 extract preparation is described for the in vitro splicing assay
Method in brief: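 SF3b complexes captured from nuclear extracts on anti-SF3B1 antibody SPA beads; test compounds pre-incubated 30 min before 2.5 nM [3H]-pladienolide probe added, then 30 min incubation. Bound probe read by scintillation; values from non-linear regression of concentration–response curves.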

[2] = system: Ad2 variant pre-mRNAs spliced in HeLa S3 nuclear extracts; test: In vitro splicing assay (IVS), RT-qPCR of spliced product; type: biochemical; details: for IC50: geometric mean; for Ratio Ad2.1/2.2: ratio of IVS IC50 Ad2.1 to Ad2.2
Method in brief: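 Ad2 variant pre-mRNA (2 ng) with FTZΔi control RNA in HeLa S3 nuclear extract (8 μg) was pre-incubated with compound or DMSO for 15 min at 30 °C. Splicing ran 90 min at 30 °C after adding 0.5 mM ATP, creatine phosphate and MgCl2. Spliced product was quantified by TaqMan RT-qPCR, normalized to DMSO, and curve-fitted.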

[3] = system: NCI-H1568 cells (high MCL1); test: Cell proliferation and viability, CellTiter-Glo, 72 hours; type: cell-based; details: for GI50: geometric mean
Method in brief: (§1)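 Cells grown in RPMI-1640 with 10% FBS (Panc line with added insulin and FBS to 15%) were exposed to an 11-point half-log dilution series, typically 10 μM-100 pM, at 0.1% final DMSO. After incubation at 37° C, 5% CO2, ATP content was measured by luminescence and normalized to a time-zero plate and DMSO wells.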

[4] = system: Panc 05.04 cells (SF3b K700E mutant); test: as above; type: cell-based; details: for GI50: geometric mean
Method in brief: as §1

[5] = Ad2.1 pre-mRNA substrate, read-out: qPCR-IVS-ATS GMean IC50 (nM) Ad2.1
[6] = Ad2.2 pre-mRNA substrate, read-out: qPCR-IVS-ATS GMean IC50 (nM) Ad2.2
[7] = NCI-H1568, read-out: CTGlo-ATS GMean GI50 (nM) 72 h NCIH1568.1, NCIH1568.1 cells, 72 h
[8] = NCIH1568.1 cells, 72 h, −100% cidal, 0% static, 100% maximal growth
[9] = PANC0504.1 cells, 72 h, −100% cidal, 0% static, 100% maximal growth
[10] = Panc 05.04, read-out: CTGlo-ATS GMean GI50 (nM) 72 h PANC0504.1, PANC0504.1 cells, 72 h
[11] = 72 h, NCIH1568.1, -100% = cidal, 0% = static, 100% = uninhibited growth
[12] = NCI-H1568, read-out: CTGlo-ATS GMean GI50 (nM) 72 h NCIH1568.1, 72 h, NCIH1568.1
[13] = 72 h, PANC0504.1, -100% = cidal, 0% = static, 100% = uninhibited growth
[14] = Panc 05.04, read-out: CTGlo-ATS GMean GI50 (nM) 72 h PANC0504.1, 72 h, PANC0504.1
[15] = NCI-H1568, 72 h, read-out: CTGlo-ATS GMean GI50 (nM) 72 h NCIH1568.1, NCIH1568.1 cells, 72 h
[16] = Panc 05.04, 72 h, read-out: CTGlo-ATS GMean GI50 (nM) 72 h PANC0504.1, PANC0504.1 cells, 72 h

SMILES	IC50 [1] [nM]	IC50 [2, 5] [nM]	IC50 [2, 6] [nM]	GI50 [3, 7] [nM]	CTGlo-ATS Mean MinResponse % 72 h NCIH1568.1 [3, 8] [%]	CTGlo-ATS Mean MinResponse % 72 h PANC0504.1 [4, 9] [%]	GI50 [4, 10] [nM]	Ratio Ad2.1/2.2 [2]	CTGlo-ATS Mean MinResponse % 72 h NCIH1568.1 [3, 11] [%]	GI50 [3, 12] [nM]	CTGlo-ATS Mean MinResponse % 72 h PANC0504.1 [4, 13] [%]	GI50 [4, 14] [nM]	GI50 [3, 15] [nM]	GI50 [4, 16] [nM]
C/C(=C\c1cc(F)cc(N2CCN(S(=O)(=O)C3COC3)CC2)c1)[C@H]1OC(=O)C[C@H](O)CC[C@H](C)[C@@H](OC(=O)N2CCN(C)CC2)/C=C/[C@@H]1C [Compound 125]	5.06	17.6	14.9	4.51	−83.586	−83.226	6.76	–	–	–	–	–	–	–
C/C(=C\c1cc(F)cc(N2CC(F)C2)c1)[C@H]1OC(=O)C[C@H](O)CC[C@H](C)[C@@H](OC(=O)N2CCN(C)CC2)/C=C/[C@@H]1C [Compound 38]	3.1	1020	25.2	19.6	−54.093	−88.672	14.4	–	–	–	–	–	–	–
C/C(=C\c1cccc(S(=O)(=O)N2CCCCC2)c1)[C@H]1OC(=O)C[C@H](O)CC[C@H](C)[C@@H](OC(=O)N2CCN(C)CC2)/C=C/[C@@H]1C [Compound 213, [(2S,3S,4E,6R,7S,10R)-10-hydroxy-3,7-dimethyl-12-oxo-2-[(E)-1-(3-piperidin-1-ylsulfonylphenyl)prop-1-en-2-yl]-1-oxacyclododec-4-en-6-yl] 4-methylpiperazine-1-carboxylate]	3.23	9.84	7.96	–	–	–	–	1.236	−64.116	6.03	−85.603	3.2	–	–
C/C(=C\c1cc(F)c2nn(CC3CC3)nc2c1)[C@H]1OC(=O)C[C@H](O)CC[C@H](C)[C@@H](OC(=O)N2CCN(C)CC2)/C=C/[C@@H]1C [Compound 138]	8.7	> 25000	57.5	70.3	−80.330	−85.916	120	–	–	–	–	–	–	–
C/C(=C\c1cc(F)cc(N2CCOCC2=O)c1)[C@H]1OC(=O)C[C@H](O)CC[C@H](C)[C@@H](OC(=O)N2CCN(C)CC2)/C=C/[C@@H]1C [Compound 56]	1.94	16.1	15.3	4.42	−67.625	−90.320	1.85	–	–	–	–	–	–	–
COCC(=O)Nc1cc(F)cc(/C=C(\C)[C@H]2OC(=O)CC(O)CCC(C)[C@@H](OC(=O)N3CCN(C)CC3)/C=C/[C@@H]2C)c1 (stereo in doubt) [Compound 249, [(2S,3S,4E,6R,7R,10S)-2-[(E)-1-[3-fluoro-5-[(2-methoxyacetyl)amino]phenyl]prop-1-en-2-yl]-10-hydroxy-3,7-dimethyl-12-oxo-1-oxacyclododec-4-en-6-yl] 4-methylpiperazine-1-carboxylate]	5.16	6350	33.6	–	–	–	–	188.921	−49.016	14.5	−93.297	13.8	–	–
C/C(=C\c1cc(F)cc(N2CCN(C#CF)C2=O)c1)[C@H]1OC(=O)C[C@H](O)CC[C@H](C)[C@@H](OC(=O)N2CCN(C)CC2)/C=C/[C@@H]1C [Compound 66]	2.23	206	33.9	11.7	−64.699	−89.623	8.22	–	–	–	–	–	–	–
C/C(=C\c1cccc(COC(=O)N2CC[C@@H](F)C2)c1)[C@H]1OC(=O)C[C@H](O)CC[C@H](C)[C@@H](OC(=O)N2CCN(C)CC2)/C=C/[C@@H]1C [Compound 260]	0.196	> 25000	99.4	–	–	–	–	251.398	−44.621	42.3	−47.734	39.5	–	–
C/C(=C\c1cc(F)c2cnn(C)c2c1)[C@H]1OC(=O)C[C@H](O)CC[C@H](C)[C@@H](OC(=O)N2CCN(C)CC2)/C=C/[C@@H]1C [Compound 101]	1.1	1810	4.13	–	−64.073	−94.474	–	–	–	–	–	–	7.68	9.78
C/C(=C\c1cc(F)cc(N2CCO[C@H](CO)C2)c1)[C@H]1OC(=O)C[C@H](O)CC[C@H](C)[C@@H](OC(=O)N2CCN(C)CC2)/C=C/[C@@H]1C [Compound 76]	4.2	21.5	17.7	–	−77.948	−90.504	–	–	–	–	–	–	3.02	5.17
C/C(=C\c1cc(F)cc(NS(=O)(=O)N(C)C)c1)[C@H]1OC(=O)C[C@H](O)CC[C@H](C)[C@@H](OC(=O)N2CCN(C)CC2)/C=C/[C@@H]1C [Compound 248, [(2S,3S,4E,6R,7S,10R)-2-[(E)-1-[3-(dimethylsulfamoylamino)-5-fluorophenyl]prop-1-en-2-yl]-10-hydroxy-3,7-dimethyl-12-oxo-1-oxacyclododec-4-en-6-yl] 4-methylpiperazine-1-carboxylate]	6.62	> 25000	76.4	–	–	–	–	327.274	−46.753	97	−92.622	75.8	–	–
C/C(=C\c1cc(F)cc(N2CCOCC2)c1)[C@H]1OC(=O)C[C@H](O)CC[C@H](C)[C@@H](OC(=O)N2CCN(C)[C@H](C)C2)/C=C/[C@@H]1C [Compound 23]	4.23	369	28.3	10.8	−64.974	−90.781	10.4	–	–	–	–	–	–	–
COCCC(=O)N1CCN(c2cc(F)cc(/C=C(\C)[C@H]3OC(=O)C[C@H](O)CC[C@H](C)[C@@H](OC(=O)N4CCN(C)CC4)/C=C/[C@@H]3C)c2)CC1 [Compound 134]	2.06	26.5	13.3	3.92	−79.743	−92.570	4.11	–	–	–	–	–	–	–
